Experimental findings from patent publication US20110039905A1, “BENZIMIDAZOLE DERIVATIVES AS CALCIUM CHANNEL BLOCKERS” (priority 2008, published 2011) are described below.

One assay addresses T1, human Cav1.2 channel (Homo sapiens, UniProt Q13936).
T1 construct: expressed in transfected cells; host or cells: HEK293
The experiment in a line: In vitro assay L channel (FLIPR, KCl-induced calcium fluorescence). The class given is cell-based. As to conditions: HEK293 cells expressing human Cav1.2 with β-2a and α2δ-1; 20 mM KCl depolarization; range stated for the group; read-out: IC50 (L channel antagonistic activity). As to the method:
The L channel antagonistic activity (IC50 values) of the compounds of formula (I) is determined in accordance with the following experimental method.
Human embryonic kidney (HEK293) cells expressing the human Cav1.2 channel in addition to the auxiliary subunits β-2a and α2δ-1, are grown in culture medium (DMEM containing 10% heat-inactivated fetal calf serum (FCS), 100 U/ml penicillin, 100 μg/ml streptomycin, 100 μg/ml G418, 40 μg/ml zeocin and 100 μg/ml hygromycin). The cells are seeded at 20,000 cells/well into 384-well black clear bottom sterile plates (poly-L-lysine-coated, Becton Dickinson). The seeded plates are incubated overnight at 37° C. in 5% CO2. The KCl solution is prepared as 80 mM stock solution in assay buffer (HBSS containing 0.1% BSA, 20 mM HEPES, 0.375 g/l NaHCO3, adjusted to pH 7.4 with NaOH) for use in the assay at a final concentration of 20 mM. Antagonists are prepared as 10 mM stock solutions in DMSO, then diluted in 384w plates first in DMSO, then in assay buffer to obtain 3× stocks. On the day of the assay, 25 μl of staining buffer (HBSS containing 20 mM HEPES, 0.375 g/l NaHCO3, and 30 μM of the fluorescent calcium indicator fluo-4 AM (1 mM stock solution in DMSO, containing 10% pluronic) is added to each well of the seeded plate. The 384-well cell-plates are incubated for 60 min at 37° C. in 5% CO2 followed by washing with […] using assay buffer leaving […] of this buffer for equilibration at room temperature (30-60 min). Within the Fluorescent Imaging Plate Reader (FLIPR, Molecular Devices), antagonists are added to the plate in a volume of 25 μl/well, incubated for 3 min and finally 25 μl/well of KCl solution is added for cellular depolarization. Fluorescence is measured for each well at 2 second intervals for 8 minutes, and the area under the curve of each fluorescence peak is compared to the area of the fluorescence peak induced by 20 mM KCl with vehicle in place of antagonist. […]

The next assay relates to isolated mouse hearts. The assay is described as follows: Effect on isolated hearts according to the Langendorff method. As to conditions: read-out: EC50 (Langendorff experiment). As to the method: The compounds were tested for their potential to reduce blood pressure and their effect on the contractility of the heart muscle. EC50 values on isolated mouse hearts were determined according to Literature (Doring H J., The isolated perfused heart according to Langendorff technique—function—application, Physiol. Bohemoslov. 1990, 39(6), 481-504; Kligfield P, Horner H, Brachfeld N., A model of graded ischemia in the isolated perfused rat heart, J. Appl. Physiol. 1976 June, 40(6), 1004-8).

The test system of assay [1] is human Cav3.1 Cav3.2 or Cav3.3 channel. The assay is described as follows: In vitro assay T channel (FLIPR, Ca2+-induced calcium fluorescence). The conditions noted are these: HEK293 cells expressing human Cav3.1, Cav3.2 or Cav3.3; 10 mM Ca2+; subtype not specified in Table 1; read-out: IC50 (T channel antagonistic activity). Type of assay: cell-based. The procedure: The T channel antagonistic activity (IC50 values) of the compounds of formula (I) is determined in accordance with the following experimental method and data are shown in Table 1.
Human embryonic kidney (HEK293) cells expressing the human Cav3.1 Cav3.2 or Cav3.3 channel, respectively, are grown in culture medium (DMEM containing 10% heat-inactivated fetal calf serum (FCS), 100 U/ml penicillin, 100 μg/ml streptomycin and 1 mg/ml G418). The cells are seeded at 20,000 cells/well into 384-well black clear bottom sterile plates (poly-L-lysine-coated, Becton Dickinson). The seeded plates are incubated overnight at 37° C. in 5% CO2. […] On the day of the assay, 25 μl of staining buffer (HBSS containing 20 mM HEPES, 0.375 g/l NaHCO3 and 30 μM of the fluorescent calcium indicator fluo-4 AM (1 mM stock solution in DMSO, containing 10% pluronic) is added to each well of the seeded plate. The 384-well cell-plates are incubated for 60 min at 37° C. in 5% CO2 followed by washing with […] using HBSS containing 0.1% BSA, 20 mM HEPES, 0.375 g/l NaHCO3, leaving […] of this buffer for equilibration at room temperature (30-60 min). Within the Fluorescent Imaging Plate Reader (FLIPR, Molecular Devices), antagonists are added to the plate in a volume of […], incubated for 3 min, and finally […] of Ca^2+solution is added. […]

T1 sequence (Q13936 whole entry): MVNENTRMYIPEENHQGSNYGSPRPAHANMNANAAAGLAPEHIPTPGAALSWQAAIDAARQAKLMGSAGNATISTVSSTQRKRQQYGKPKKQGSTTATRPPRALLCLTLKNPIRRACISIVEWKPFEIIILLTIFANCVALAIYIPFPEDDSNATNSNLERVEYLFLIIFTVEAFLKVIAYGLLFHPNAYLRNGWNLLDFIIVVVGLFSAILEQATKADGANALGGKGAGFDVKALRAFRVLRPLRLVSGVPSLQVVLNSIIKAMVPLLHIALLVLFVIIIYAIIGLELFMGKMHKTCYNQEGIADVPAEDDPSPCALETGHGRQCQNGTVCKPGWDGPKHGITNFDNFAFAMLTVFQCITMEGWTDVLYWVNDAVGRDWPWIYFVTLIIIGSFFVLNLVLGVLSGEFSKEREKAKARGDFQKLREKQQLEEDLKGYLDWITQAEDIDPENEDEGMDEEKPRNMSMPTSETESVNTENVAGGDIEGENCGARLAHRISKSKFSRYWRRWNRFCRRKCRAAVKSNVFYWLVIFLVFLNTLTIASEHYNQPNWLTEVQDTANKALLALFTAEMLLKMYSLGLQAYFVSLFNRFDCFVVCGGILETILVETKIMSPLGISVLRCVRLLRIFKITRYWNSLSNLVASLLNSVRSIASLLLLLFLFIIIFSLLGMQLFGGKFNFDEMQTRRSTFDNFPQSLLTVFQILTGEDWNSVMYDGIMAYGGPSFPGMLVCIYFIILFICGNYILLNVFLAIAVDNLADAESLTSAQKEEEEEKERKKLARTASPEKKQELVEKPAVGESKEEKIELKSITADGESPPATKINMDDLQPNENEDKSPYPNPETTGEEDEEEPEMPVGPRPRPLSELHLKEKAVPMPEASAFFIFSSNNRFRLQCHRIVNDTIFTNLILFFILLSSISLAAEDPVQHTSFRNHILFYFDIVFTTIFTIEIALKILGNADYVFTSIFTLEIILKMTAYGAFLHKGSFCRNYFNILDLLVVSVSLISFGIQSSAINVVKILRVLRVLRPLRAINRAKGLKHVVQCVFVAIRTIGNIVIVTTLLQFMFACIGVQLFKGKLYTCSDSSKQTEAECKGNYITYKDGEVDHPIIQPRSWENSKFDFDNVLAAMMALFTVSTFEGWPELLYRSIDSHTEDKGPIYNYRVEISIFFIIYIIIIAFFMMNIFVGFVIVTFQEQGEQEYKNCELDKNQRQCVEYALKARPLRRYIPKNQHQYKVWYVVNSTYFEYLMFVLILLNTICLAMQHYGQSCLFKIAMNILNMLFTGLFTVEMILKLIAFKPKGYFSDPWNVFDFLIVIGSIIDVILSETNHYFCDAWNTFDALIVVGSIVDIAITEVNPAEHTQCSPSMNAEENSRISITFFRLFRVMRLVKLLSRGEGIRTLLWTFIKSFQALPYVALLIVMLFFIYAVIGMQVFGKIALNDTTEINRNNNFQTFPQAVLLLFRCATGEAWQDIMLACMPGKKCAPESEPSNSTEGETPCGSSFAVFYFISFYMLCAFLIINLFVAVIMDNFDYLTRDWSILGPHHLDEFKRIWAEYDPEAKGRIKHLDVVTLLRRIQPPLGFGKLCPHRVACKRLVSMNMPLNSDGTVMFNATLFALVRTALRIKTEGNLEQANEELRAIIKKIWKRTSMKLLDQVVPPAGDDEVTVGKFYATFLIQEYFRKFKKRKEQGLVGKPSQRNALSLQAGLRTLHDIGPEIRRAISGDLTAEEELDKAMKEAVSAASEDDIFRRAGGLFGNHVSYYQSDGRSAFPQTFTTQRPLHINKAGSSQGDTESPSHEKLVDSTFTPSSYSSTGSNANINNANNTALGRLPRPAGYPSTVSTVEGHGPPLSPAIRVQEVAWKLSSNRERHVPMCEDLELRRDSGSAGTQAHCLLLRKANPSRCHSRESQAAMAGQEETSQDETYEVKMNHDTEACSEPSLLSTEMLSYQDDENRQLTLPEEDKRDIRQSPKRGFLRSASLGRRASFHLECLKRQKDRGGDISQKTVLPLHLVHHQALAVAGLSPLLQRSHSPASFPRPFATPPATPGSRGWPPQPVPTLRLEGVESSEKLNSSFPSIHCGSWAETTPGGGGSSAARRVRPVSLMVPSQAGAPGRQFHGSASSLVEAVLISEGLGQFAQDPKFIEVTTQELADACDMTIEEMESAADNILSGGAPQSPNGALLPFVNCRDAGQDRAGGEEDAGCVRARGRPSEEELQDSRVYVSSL

Take `COc1ccc(OC)c2[nH]c(CCCN(C)CC[C@]3(OC(=O)C(C)C)C[C@H]4CC[C@@H]3C=C4c3ccccc3)nc12` (racemic) [Example 1A, rac-Isobutyric acid (1R*,2R*,4R*)-2-(2-{[3-(4,7-dimethoxy-1H-benzoimidazol-2-yl)-propyl]-methyl-amino}-ethyl)-5-phenyl-bicyclo[2.2.2]oct-5-en-2-yl ester]: the IC50 – broadly, the concentration that gives 50% inhibition – at human Cav1.2 channel is 156 to 439 nM. The EC50 – broadly, the concentration needed to bring the measured effect to its halfway point – with isolated mouse hearts amounted to 5 nM.

With `COc1ccc(OC)c2[nH]c(CCCN(C)CC[C@]3(OC(=O)C(C)C)C[C@H]4CCC[C@@H]3C=C4c3ccccc3)nc12` (racemic) [Example 4A, rac-Isobutyric acid (1R*,5R*,6R*)-6-(2-{[3-(4,7-dimethoxy-1H-benzoimidazol-2-yl)-propyl]-methyl-amino}-ethyl)-8-phenyl-bicyclo[3.2.2]non-8-en-6-yl ester], on human Cav1.2 channel, the IC50 was 156 to 439 nM.

In the case of `COc1ccc(OC)c2[nH]c(CCCN(C)CCC3(OC(=O)C(C)C)CC4CCC3C=C4c3ccccc3)nc12` (single isomer, unassigned) [Example 2A, Isobutyric acid (1R,2R,4R)-2-(2-{[3-(4,7-dimethoxy-1H-benzoimidazol-2-yl)-propyl]-methyl-amino}-ethyl)-5-phenyl-bicyclo[2.2.2]oct-5-en-2-yl ester or isobutyric acid (1S,2S,4S)-2-(2-{[3-(4,7-dimethoxy-1H-benzoimidazol-2-yl)-propyl]-methyl-amino}-ethyl)-5-phenyl-bicyclo[2.2.2]oct-5-en-2-yl ester], the values for the IC50 (on human Cav1.2 channel; in assay [1]) were 156 to 439 nM and 778 nM, respectively.

As to `COc1ccc(OC)c2[nH]c(CCCN(C)CCC3(OC(=O)C(C)C)CC4CCC3C=C4c3ccccc3)nc12` (single isomer, unassigned) [Example 3A, Isobutyric acid (1R,2R,4R)-2-(2-{[3-(4,7-dimethoxy-1H-benzoimidazol-2-yl)-propyl]-methyl-amino}-ethyl)-5-phenyl-bicyclo[2.2.2]oct-5-en-2-yl ester or isobutyric acid (1S,2S,4S)-2-(2-{[3-(4,7-dimethoxy-1H-benzoimidazol-2-yl)-propyl]-methyl-amino}-ethyl)-5-phenyl-bicyclo[2.2.2]oct-5-en-2-yl ester], the IC50 in assay [1] is 793 nM.
